Data on one compound can be found in patent publication US20230404979A1, “ALPHA-2 […] RECEPTOR AGONISTS TO REDUCE MORTALITY AND IMPROVE OUTCOMES IN VIRAL R[…]” (RUSH UNIVERSITY MEDICAL CENTER, priority 2020, published 2023).

For assay [1], the system named is patients with COVID-19 requiring sedation and invasive mechanical ventilation.
Description: (§1) Data was collected from electronic medical records (EMRs) of Rush University hospitals: Rush University Medical Center; Rush Copley Medical Center; and Rush Oak Park Hospital. Deidentified data was collected from the EMRs by the Rush Bioinformatics and Biostatistics Core. This retrospective cohort study received expedited approval by the Institutional Review Board at Rush University Medical Center.
We identified patients that were hospitalized at Rush University from Mar. […] Corticosteroids were not excluded because at the time of the study there were no standard practices or guidelines for using this medication in the study population at Rush. Clinical outcomes were assessed from the time of admission to the time of discharge.
We evaluated patients in each group for age, gender, race, ethnicity, and comorbidities at admission. […] Directly prior to intubation, a sequential organ failure assessment score (SOFA) was calculated for each group, and a PaO2/FiO2 (mmHg) was separately assessed.
Our primary tool to assess 28-day mortality was multivariable Cox proportional hazards regression.
(§2) For continuous variables, independent samples t-tests were performed. For each continuous variable, a Levene's test for equality of variances was performed. With significance on Levene's test for heterogeneity of variances, a Mann-Whitney U test was performed. […] Categorical variables were assessed with a Pearson's chi-squared test. If any expected count in a 2×2 table was less than 5, a Fisher's exact test was performed. […] We used p≤0.05 as the threshold for significance.
Simple imputation using the mean of the immediate preceding and succeeding most severe value over 24 hours was used for missing values for Pao2/Flo2 and mSOFA scores within the 24 hour time period of interest (intubation) (11-13). A complete case analysis was performed (14). All analyses were performed using SPSS version 27.
Assay [2] has the same test system. The settings on record: for Hospital length of stay / ICU Free days at day 60 / ICU time / Intubation time / Ventilator free days at day 60: mean.
Description: as §1
We identified patients that were hospitalized at Rush University from Mar. 1, 2020 to Jul. 30, 2020. […] Corticosteroids were not excluded because at the time of the study there were no standard practices or guidelines for using this medication in the study population at Rush. Clinical outcomes were assessed from the time of admission to the time of discharge.
as §2
Setting [3] is: 90% or greater vs less than 90%.
[4] abbreviates: time on dexmedetomidine/time on intubation 90% or greater (n=30).
The mark [5] stands for this setting: time on dexmedetomidine/time on intubation less than 90% (n=122).

Read-outs that look alike come from different tables or passages of the source.

In the case of `Cc1cccc([C@H](C)c2cnc[nH]2)c1C` [DEX, dexmedetomidine], in assay [1] (DEX cohort vs cohort that did not receive DEX, 95% CI 42.4-69.6%), the “relative risk reduction (28-day mortality)” value is 58.2%. For the same compound, in assay [1] (from start time of intubation, cohort receiving DEX (n=152)), the 28-day mortality was found to be 27.0%. Further, the “landmark analysis of 28-day mortality by start time of DEX” value in assay [1] (time cut-offs days 1-22 from intubation, earlier DEX use) is “lower aHRs and increased significance”. The “28-day mortality aHR” value in assay [1] (univariable Cox regression with DEX use as time-varying covariate, (95% CI)) worked out at 0.56. For the same compound, in assay [2] (90% or greater (n=30)), the “Hospital length of stay” value came to 24.37 days, the “ICU Free days at day 60” value was 36.45, the ICU time is 18.76 days and the Intubation time worked out at 9.61 days. Moreover, the “Ventilator free days at day 60” value in assay [2] (90% or greater (n=30)) is on record as 43.63. For the same compound, in assay [2] (setting [3]), the “Hospital length of stay, Difference Between Groups” value is -1.38 days; the “ICU Free days at day 60, Difference Between Groups” value turned out to be 11.48; the “ICU time, Difference Between Groups” value was -1.83 days; the “Intubation time, Difference Between Groups” value is -5.92 days. In assay [2] (setting [3]), the “Ventilator free days at day 60, Difference Between Groups” value is recorded as 15.55. Also, the “In-hospital mortality, Risk Ratio” value in assay [2] (90% or greater vs less than 90% of intubation time on dexmedetomidine) is listed as 0.277. Further, in assay [2] (less than 90% (n=122)), the “Hospital length of stay” value came out at 25.75 days, the “ICU Free days at day 60” value was 24.98, the ICU time was determined as 20.59 days and the Intubation time is on record as 15.53 days. Besides, the “Ventilator free days at day 60” value in assay [2] (less than 90% (n=122)) came to 28.08. For the same compound, in assay [2] (setting [4]), the “In-hospital mortality (%)” value was “(10.0%)” and the “In-hospital mortality (count)” value is 3/30. Further, in assay [2] (setting [5]), the “In-hospital mortality (%)” value is “(36.1%)” and the “In-hospital mortality (count)” value is 44/122.
